Earlier results on one molecule are cited in patent US20250144015A1, “Pharmaceutical Compositions” (Extrovis AG, priority 2023, published 2025).

The series concerns opioid craving. The settings on record: single high dose of 16 mg or 32 mg; opioid-dependent patients.

Regarding `CO[C@@]12CC[C@@]3(C[C@@H]1[C@](C)(O)C(C)(C)C)C1Cc4ccc(O)c5c4[C@@]3(CCN1CC1CC1)[C@H]2O5` [buprenorphine, [5α,7α(S)]-17-(Cyclopropylmethyl)-α-(1,1-dimethylethyl)-4,5-epoxy-18,19-dihydo-3-hydroxy-6-methoxy-α-methyl-6,14-ethenomorphinan-7-methanol], the “Effect on opioid craving” value is listed as “reduce opioid craving”.
